In one data set the test system is NF-κB. As to the kind of experiment: Single-point screen: NFκB activation (SEAP reporter). Type of data set: cell-based, human. To be noted: A549-Dual cells, compound 50 μM pre-treatment, NP-1+mRNA 20 ng/well + IFN; for fold induction at 50 µM: Homo sapiens, 24 h, read-out: fold NFkB over IFN. From the text:
(§1) The cells produce secreted embryonic alkaline phosphatase (SEAP), under the control of the interferon beta […] minimal promoter fused to five NF-κB binding sites. The cells also secrete lucia luciferase under the control of IFIT2 promoter.

Data set [1] concerns A549-Dual cells. As to the kind of experiment: Single-point kinase inhibitor library screen: nLuc expression from NP-1+mRNA-nLuc in IFN-treated cells. Format: cell-based, human. Particulars: compound 50 μM pre-treatment, NP-1+mRNA 20 ng/well + IFN; for fold induction at 50 µM: Homo sapiens, read-out: fold nLuc over RNA + IFN. As to the method: as §1
To measure protein expression from mRNA, which is the primary readout for compound down selection, mRNA encoding a secreted version of nanoluciferase (mRNA-nLuc) was used. Protein expression was measured via a luminometer using standard techniques.
As additional criterion, expression in compound treated cells was compared relative to mRNA-transfected cells without IFN (“RNA only”) (data not shown).
A library of small molecule kinase inhibitors was screened for the ability to enhance expression of mRNA-encoded genes when co-delivered with mRNA.

For the next data set, the system named is IFIT2. As to the kind of experiment: Single-point screen: IFIT2 activation (Lucia luciferase, QUANTI-Luc). Format: cell-based, human. Particulars: A549-Dual cells, compound 50 μM pre-treatment, NP-1+mRNA 20 ng/well + IFN; for fold induction at 50 µM: Homo sapiens, 24 h, read-out: fold IFIT over IFN.
Excerpt: as §1

The test system of data set [2] is A549-Dual cells. Kind of data set: Single-point screen: cell viability by CellTiter-Glo. To be noted: A549-Dual cells incubated overnight with compound at 50 μM, then NP-1+mRNA 20 ng/well + IFN 1:50. (In ATP-based viability assays light output follows the ATP content of the culture.)
Procedure: Finally, cell lysates were assayed with the CellTiter-GLO® assay (Promega) to obtain a luminescent-based measure of cell viability. In summary, the readouts from the high throughput screen included the primary measure of nLuc protein expression and three secondary readouts: IFIT, NF-κB and cell viability.
For each assay, A549-dual cells were plated at a seeding density of about 5×10^4 cells per well. Cells were incubated overnight with compounds at 50 microMolar (μM) in 1% v/v dimethyl sulfoxide (DMSO). For control wells, 1% DMSO was added to each well. After about 24 hours, the culture medium was removed, and cells were transfected with NP-1+mRNA at 20 ng/mRNA/well in Opti-MEM® media (Thermofisher). Interferon (IFN) was diluted to 1:50 in all test wells except for the RNA only wells and media only wells. Anti-IFN was diluted 1:1000 in “RNA+anti-IFN+IFN” wells. Cells were incubated for 4 hours, and culture medium was added to the Opti-MEM® medium. After 24 hours, assay supernatants were collected and analyzed for nLuc expression, IFIT2 (qLuc), and NFκB (qBLUE-SEAP™, InvivoGen) activation. Cells were then lysed, and cell viability was determined by CellTiter-Glo® (Promega) assay.

Structures can show the parent of a compound that is named as a salt.

Take `CN1CC[C@H](c2c(O)cc(O)c3c(=O)cc(-c4ccc(C(F)(F)F)cc4Cl)oc23)[C@H]1CO` [(2S,3R)-Voruciclib (hydrochloride), 2-[2-chloro-4-(trifluoromethyl)phenyl]-5,7-dihydroxy-8-[(2S,3R)-2-(hydroxymethyl)-1-methylpyrrolidin-3-yl]chromen-4-one; hydrochloride]: the values for the fold induction at 50 µM in the data set on NF-κB, with A549-Dual cells [1] and in the data set with IFIT2 were 0.26, 113 and 1.09, respectively.

In the case of `Cc1[nH]ncc1-c1cc2nc([C@H]3CC4CCN3CC4)[nH]c(=O)c2s1` [(R)-Simurosertib], the “% viability” value with A549-Dual cells [2] is given as 86%. For the same compound, the “fold NFkB over IFN” value in the data set on NF-κB was 1.33 fold. The “fold nLuc over RNA + IFN” value with A549-Dual cells [1] is 200.44 fold. Further, in the data set on IFIT2, the “fold IFIT over IFN” value came to 1.84 fold.

`COc1ccc(-c2c[nH]c3nccc(-c4ccsc4)c23)c(OC)c1` [ARN-3236, 3-(2,4-dimethoxyphenyl)-4-thiophen-3-yl-1-pyrrolo[2,3-b]pyridine]: the “% viability” value with A549-Dual cells [2] turned out to be 33%. Moreover, the “fold NFkB over IFN” value in the data set with NF-κB was found to be 0.41 fold. The “fold nLuc over RNA + IFN” value in the data set with A549-Dual cells [1] was found to be 322.60 fold. Moreover, the “fold IFIT over IFN” value with IFIT2 was 1.61 fold.

On to `CCN1CCN(Cc2ccc(NC(=O)Nc3ccc(Oc4cc(NC)ncn4)cc3)cc2C(F)(F)F)CC1` [AST 487, 1-[4-[(4-ethylpiperazin-1-yl)methyl]-3-(trifluoromethyl)phenyl]-3-[4-[6-(methylamino)pyrimidin-4-yl]oxyphenyl]urea], for which, in the data set on A549-Dual cells [2], the “% viability” value amounted to 32%. Also, the values for the fold induction at 50 µM in the data set on NF-κB, in the data set with A549-Dual cells [1] and in the data set on IFIT2 were 0.14, 183 and 0.19, respectively.

As to `Cl.O=C(NC1CCNCC1)c1n[nH]cc1NC(=O)c1c(Cl)cccc1Cl` [AT7519 (Hydrochloride), 4-[(2,6-dichlorobenzoyl)amino]-N-piperidin-4-yl-1H-pyrazole-5-carboxamide; hydrochloride], the “% viability” value in the data set on A549-Dual cells [2] was 42%. Moreover, the fold induction at 50 µM in the data set on NF-κB stood at 0.43; in the data set on A549-Dual cells [1], 123; with IFIT2, 0.88.

For the compound `Cc1ncc(-c2ccnc(Nc3ccc(S(C)(=O)=O)cc3)n2)n1C(C)C` [AZD-5438, 4-(1-isopropyl-2-methyl-1H-imidazol-5-yl)-N-(4-(methylsulfonyl)phenyl)pyrimidin-2-amine], in the data set on A549-Dual cells [2], the “% viability” value is given as 46%. Moreover, the fold induction at 50 µM stood at 0.38 in the data set with NF-κB, 353 in the data set with A549-Dual cells [1] and 2.39 with IFIT2.

On to `Cc1cc(Nc2cc(Cl)nc(Oc3ccc([N+](=O)[O-])cc3)n2)n[nH]1` [Autophinib, 6-chloro-NV-(5-methyl-1H-pyrazol-3-yl)-2-(4-nitrophenoxy)pyrindin-4-amine], for which, in the data set on A549-Dual cells [2], the “% viability” value came out at 49%. Besides, the “fold NFkB over IFN” value with NF-κB was 0.78 fold. Moreover, the “fold nLuc over RNA + IFN” value with A549-Dual cells [1] was 128.89 fold. In addition, the “fold IFIT over IFN” value in the data set with IFIT2 was determined as 1.09 fold.

As to `Cc1nc2c(NCc3cccc(S(C)(=O)=O)c3)nccn2c1-c1ccc(O)c(F)c1` [BF738735, 2-fluoro-4-[2-methyl-8-[(3-methylsulfonylphenyl)methylamino]imidazo[1,2-a]pyrazin-3-yl]phenol], the “% viability” value in the data set with A549-Dual cells [2] is 93%. The fold induction at 50 µM in the data set with NF-κB was found to be 0.62; in the data set with A549-Dual cells [1] it was 239; with IFIT2, 0.37.

In the case of `Cc1cnc(-c2cnc(NCCNc3ccc(C#N)cn3)nc2-c2ccc(Cl)cc2Cl)[nH]1` [CHIR-99021 (monohydrochloride), 6-[2-[[4-(2,4-dichlorophenyl)-5-(5-methyl-1H-imidazol-2-yl)pyrimidin-2-yl]amino]ethylamino]pyridine-3-carbonitrile], the fold induction at 50 µM with NF-κB came out at 0.71; in the data set with A549-Dual cells [1], 116; in the data set on IFIT2 it was 0.35.

As for `COc1cc(Nc2ncc3ccn(-c4cccc(CCC#N)c4)c3n2)cc(OC)c1OC` [Casein Kinase II Inhibitor IV, 3-[3-[2-(3,4,5-trimethoxyanilino)pyrrolo[2,3-d]pyrimidin-7-yl]phenyl]propanenitrile], the “% viability” value with A549-Dual cells [2] was found to be 18%. In addition, the fold induction at 50 µM in the data set on NF-κB worked out at 0.46; in the data set on A549-Dual cells [1], 126; in the data set on IFIT2 it was 0.79.

With `Oc1cccc(Nc2ncc(F)c(Nc3cccc(O)c3)n2)c1` [Compound R112, 3-[[5-fluoro-2-(3-hydroxyanilino)pyrimidin-4-yl]amino]phenol], in the data set with A549-Dual cells [2], the “% viability” value is reported as 76%. Besides, the fold induction at 50 µM in the data set with NF-κB came out at 1.16; in the data set with A549-Dual cells [1], 521; in the data set on IFIT2 it was 1.33.

As to `COCCOc1ccc(-c2cn(-c3ccccc3)c3nc[nH]c(=O)c23)cc1` [DMX-5804, 5-[4-(2-methoxyethoxy)phenyl]-7-phenyl-3H-pyrrolo[2,3-d]pyrimidin-4-one], the “% viability” value in the data set with A549-Dual cells [2] was determined as 92%. Also, the fold induction at 50 µM in the data set on NF-κB turned out to be 1.35; with A549-Dual cells [1] it was 267; with IFIT2 it was 0.4.

Take `O=C1Nc2ccccc2/C1=C/c1ccccn1` [GSK-3 inhibitor 1]: in the data set with A549-Dual cells [2], the “% viability” value is on record as 90%. Moreover, the “fold NFkB over IFN” value in the data set with NF-κB is 1.00 fold. For the same compound, in the data set on A549-Dual cells [1], the “fold nLuc over RNA + IFN” value is 225.93 fold. Further, the “fold IFIT over IFN” value in the data set on IFIT2 was determined as 0.65 fold.

Turning to `CN(c1ccc(NC(=O)Nc2ccc(OC(F)(F)F)cc2)cc1)c1ccnc(Nc2cccc(S(N)(=O)=O)c2)n1` [GW806742X (hydrochloride), 1-[4-[methyl-[2-(3-sulfamoylanilino)pyrimidin-4-yl]amino]phenyl]-3-[4-(trifluoromethoxy)phenyl]urea], the “% viability” value with A549-Dual cells [2] worked out at 41%. Further, the values for the fold induction at 50 µM with NF-κB, with A549-Dual cells [1] and in the data set with IFIT2 were 0.91, 842 and 3.93, respectively.

For `C[C@H](Nc1cc(-c2cnn(C)c2)cc(Nc2cnccn2)n1)c1ccc(F)cc1.Cl` [Ilginatinib hydrochloride, 6-N-[(1S)-1-(4-fluorophenyl)ethyl]-4-(1-methylpyrazol-4-yl)-2-N-pyrazin-2-ylpyridine-2,6-diamine; hydrochloride], the fold induction at 50 µM with NF-κB stood at 1.39; in the data set on IFIT2 it was 3.17. In the data set on A549-Dual cells [1], the “fold nLuc over RNA + IFN” value worked out at 484.10 fold.

For the compound `C[C@H](Nc1cc(-c2cnn(C)c2)cc(Nc2cnccn2)n1)c1ccc(F)cc1` [Ilginatinib, 6-N-[(1S)-1-(4-fluorophenyl)ethyl]-4-(1-methylpyrazol-4-yl)-2-N-pyrazin-2-ylpyridine-2,6-diamine], the fold induction at 50 µM was determined as 1.12 in the data set on NF-κB and 1.89 with IFIT2. The “fold nLuc over RNA + IFN” value with A549-Dual cells [1] was 115.95 fold.

For the compound `C[C@@H](Oc1ccc2[nH]nc(/C=C/c3cnn(CCO)c3)c2c1)c1c(Cl)cncc1Cl` [LY2874455, 2-[4-[(E)-2-[5-[(1R)-1-(3,5-dichloropyridin-4-yl)ethoxy]-1H-indazol-3-yl]ethenyl]pyrazol-1-yl]ethanol], the “% viability” value in the data set on A549-Dual cells [2] was found to be 58%. For the same compound, the fold induction at 50 µM came out at 0.3 in the data set on NF-κB, 150 with A549-Dual cells [1] and 0.09 in the data set with IFIT2.

Take `Cn1nc(C(C)(C)C)cc1NC(=O)Nc1ccc(Oc2ccncc2)cc1` [MAPK13-IN-1, 1-(5-tert-buty-2-methylpyrazol-3-yl)-3-(4-pyridin-4-yloxyphenyl)urea]: the “% viability” value in the data set with A549-Dual cells [2] stood at 59%. Further, the “fold NFkB over IFN” value with NF-κB is 0.66 fold. Besides, the “fold nLuc over RNA + IFN” value in the data set with A549-Dual cells [1] was found to be 207.89 fold. For the same compound, in the data set on IFIT2, the “fold IFIT over IFN” value is 1.93 fold.

In the case of `Cc1cc(O)c(-c2ccc([C@@H](C)CN)cc2)c2c1[nH]c(=O)c1sccc12` [OTS514, 9-[4-[(2R)-1-aminopropan-2-yl]phenyl]-8-hydroxy-6-methyl-5H-thieno[2,3-c]quinolin-4-one], the “% viability” value in the data set with A549-Dual cells [2] came out at 66%. The fold induction at 50 µM in the data set on NF-κB is 0.35; with A549-Dual cells [1] it was 349; in the data set on IFIT2, 0.4.

Consider `Cc1cc(F)c(C(=O)Nc2cccc(-c3nncn3C(C)C)n2)cc1-n1cnc(C2CC2)c1` [Selonsertib, 5-(4-cycloproplirnidazol-1-yl)-2-fluoro-4-methyl-N-[6-(4-propan-2-yl-1,2,4-triazol-3-yl)pyridin-2-yl]benzamide], for which the fold induction at 50 µM in the data set on NF-κB was 0.9; with A549-Dual cells [1], 112; in the data set with IFIT2 it was 1.43.

For the compound `CN1CC[C@@H](c2c(O)cc(O)c3c(=O)cc(-c4ccc(C(F)(F)F)cc4Cl)oc23)[C@@H]1CO` [Voruciclib (hydrochloride), 2-[2-chloro-4-(trifluoromethyl)phenyl]-5,7-dihydroxy-8-[(2R,3S)-2-(hydroxymethyl)-1-methylpyrrolidin-3-yl]chromen-4-one], the fold induction at 50 µM came to 0.63 with NF-κB, 274 in the data set on A549-Dual cells [1] and 0.8 with IFIT2.

For the origin of these results see patent US20240252688A1, “COMPOSITIONS AND METHODS FOR ENHANCED PROTEIN PRODUCTION” (HDT Bio Corp., priority 2021, published 2024).
